Several values for one entry are separate records, joined by “and”; a condition that tells them apart may be missing. Equal entries are not always repeated.
Tests used:
[1] = Plasma AAT levels, CMT1A mouse study (50 mg/kg twice daily); type: in vivo; details: CMT1A + AAT group
Method: Animals were split in 3 groups (wild-type control (subcutaneous 0.9% NaCl), CMT1A-vehicle (subcutaneous 0.9% NaCl), CMT1A-human alpha-1 antitrypsin (subcutaneous, twice daily, 50 mg/kg per injection)) of 3 mice each (3 weeks old males of 18±2.5 g at the beginning of study) and all went through the following protocol after 7 days of acclimation on site.
Plasma levels of AAT were evaluated every 5 days from the first day of treatment to the last treatment day.
AAT was not detected in plasma of the wild type control and CMT1A mice treated with vehicle at the analyzed time points (day 14, day 19, day 24 and day 29). The AAT was detected in plasma of CMT1A+AAT group at a mean of 6.07 μg/mL, 6.99 μg/mL, 8.14 μg/mL and 5.22 μg/mL at day 14, day 19, day 24 and day 29 respectively.

[2] = system: CIDP mice; assay: Grip strength test, CIDP mouse model; type: in vivo; details: for Grip strength (Mean ± SD): CIDP mice; for Grip strength, group Mean: group mean of 4 animals; for Grip strength, Mean/animal: per animal; for Grip strength, Mean/animal / Grip strength, set 1 / Grip strength, set 2 / Grip strength, set 3: listed as hAAT; for Grip strength, set 1 / Grip strength, set 2 / Grip strength, set 3: raw data per animal
Method: (§1) C57BL/6 mice were received at 8 weeks of age and housed under controlled conditions for the duration of the study. Three groups of 4 animals each were assigned to the following subcutaneous treatments twice daily at 7:00 AM and 7:00 PM for 2 weeks, from 20 to 35 days after the start of disease induction: • Wild type (WT) mice receiving the vehicle, 0.9% NaCl (positive control) • CIDP mice receiving the vehicle, 0.9% NaCl (negative control) • CIDP mice receiving human AAT (AAT), 50 mg/kg per injection
Disease induction consisted in subcutaneous injection of mouse sciatic nerve homogenate in phosphate buffer saline (PBS)+Freund's adjuvant mixture at 10 mL/kg. For each treatment, 3 different body sites injections were performed. Control mice also received three subcutaneous injections of PBS+Freund's adjuvant at the same 3 different body sites.
On the first (Day 20) and last (Day 35) day of treatment, the neuromuscular and performance of animals was tested with a rotarod test, grip test and a sensory test using the Von Frey filament test, as well as sciatic nerve electrophysiology test. After the last treatment at Day 35, these tests were repeated, animals were sacrificed and the left sciatic nerve was sampled for histological evaluation of the number and size of […].

[3] = system: plasma TMPRSS5; assay: Plasma TMPRSS5, CIDP mouse model; type: in vivo; details: CIDP + AAT
Method: as §1
On the day preceding disease induction (Day 1), on the first (Day 20) and on the last (Day 35) treatment day, animals were subjected to blood samplings for the determination of neurofilament light chain (NfL), tumour necrosing factor alpha (TNFα) and TMPRSS5 levels, as described in FIG. 20. In addition, plasma levels of AAT were evaluated on the last treatment day.

[4] = system: CMT1A mice B6.Cg-Tg(PMP22)C3Fbas/J; assay: Sciatic nerve electrophysiology (CMAP, NCV), CMT mice treated with AAT 180 mg/kg/day sc; type: in vivo, mouse
Method: CMT MOUSE MODEL: Non-humanized CMT1A mice B6.Cg-Tg(PMP22)C3Fbas/J (three copies of the PMP22 gene), three groups of 8 animals each.
DOSAGE: 180 mg/kg/day non-clinical grade AAT (Sigma)
ADMINISTRATION: Subcutaneous (SC) (bi-daily injection of 90 mg/kg)
(§2) Animals were received at 6 weeks of age and housed under controlled conditions for the duration of the study. The study comprised two groups of 8 transgenic mice (CMT mice) each and one group of 8 age matched wild type (WT) C57B16 mice, serving as positive control. Animals were assigned to the following subcutaneous treatments twice daily at 7:00 AM and 7:00 PM for 2 weeks, starting from 8 weeks and up to 10 weeks of age: • Wild-type (WT, no disease) mice receiving vehicle, 0.9% NaCl (positive control) • CMT1A mice receiving vehicle, 0.9% NaCl (negative control) • CMT1A mice receiving AAT at 90 mg/kg per injection (daily dose 180 mg/kg)
(§3) The efficacy parameters included: • neuromuscular performance (rotarod latency to fall and grip strength test), • sciatic nerve electrophysiology (CMAP amplitude and NCV) • cytokine (IL-6 and TNFα), as well as NfL analysis • sciatic nerve histology (number of axons and axonal diameter),
On the first day of treatment (Day 1), the neuromuscular and performance of animals was tested with a rotarod test and a grip strength test, as well as sciatic nerve electrophysiology test, which measured the compound muscle action potential (CMAP) and the nerve conduction velocity (NCV). After the last treatment on Day 15, these tests were repeated. Animals were then left untreated for 2 additional weeks to evaluate the duration of the treatment effect. Following the 2-week treatment-free period until 12 weeks of age (Day 30), the behavioural and electrophysiological tests were repeated.

[5] = system: plasma IL-6; assay: Plasma IL-6, CMT mice treated with AAT 180 mg/kg/day sc; type: in vivo, mouse
Excerpt: as §2, §3
As supportive information for the mode of action of AAT in CMT, plasma concentration of interleukin 6 (IL-6) and TNFα were measured at Day 1 (8 weeks), Day 15 (10 weeks) and Day 30 (12 weeks). At the same timepoints, plasma levels of the biomarker of nerve damage, NfL were determined.

[6] = system: CMT1A mice B6.Cg-Tg(PMP22)C3Fbas/J; assay: Sciatic nerve histology, CMT mice treated with AAT 180 mg/kg/day sc; type: in vivo, mouse
Excerpt: as §2, §3

[7] = 8 weeks old (baseline, Day 1), CMT1A + AAT
[8] = 8 weeks old, CMT + hAAT 180 mg/kg/day SC, 8 mice
[9] = 8 weeks old, CMT + hAAT 180 mg/kg/day SC, individual mouse
[10] = 10 weeks old (Day 15, after 2 weeks AAT 90 mg/kg sc twice daily)
[11] = 12 weeks of age, after 2-week treatment-free period
[12] = 12 weeks old (Day 30, after 2-week treatment-free period)
[13] = CMT mice, AAT 90 mg/kg sc twice a day, 8 to 10 weeks of age, end of treatment
[14] = CMT1A + AAT 90 mg/kg sc twice daily
[15] = CMT mice, AAT 180 mg/kg daily dose
[16] = after 2 weeks treatment free period

alpha1-antitrypsin (AAT) protein
AAT detected in plasma (mean) ([1]; day 14): 6.07 µg/mL | AAT detected in plasma (mean) ([1]; day 19): 6.99 µg/mL | AAT detected in plasma (mean) ([1]; day 24): 8.14 µg/mL | AAT detected in plasma (mean) ([1]; day 29): 5.22 µg/mL | grip strength compared to the vehicle treated group ([2]; CIDP + AAT 50 mg/kg sc twice daily, Day 35): increase | Grip strength (Mean ± SD) ([2]; Day 20 (baseline)): 2.89 ± 0.32 newtons | Grip strength (Mean ± SD) ([2]; Day 35, AAT 50 mg/kg sc twice daily): 3.59 ± 0.35 newtons | Grip strength, group Mean ([2]; Baseline (Day 20)): 2.89 Newton | Grip strength, group Mean ([2]; Day 35): 3.59 Newton | Grip strength, Mean/animal ([2]; Baseline (Day 20)): 2.46 Newton and 3.19 Newton and 2.83 Newton and 3.08 Newton | Grip strength, Mean/animal ([2]; Day 35): 3.68 Newton and 3.69 Newton and 3.91 Newton and 3.10 Newton | Grip strength, set 1 ([2]; Baseline (Day 20)): 2.92 Newton and 3.06 Newton and 2.89 Newton and 3.50 Newton | Grip strength, set 2 ([2]; Baseline (Day 20)): 2.43 Newton and 2.09 Newton and 2.45 Newton and 2.62 Newton | Grip strength, set 3 ([2]; Baseline (Day 20)): 2.04 Newton and 4.42 Newton and 3.14 Newton and 3.13 Newton | Grip strength, set 1 ([2]; Day 35): 4.92 Newton and 4.55 Newton and 5.15 Newton and 3.47 Newton | Grip strength, set 2 ([2]; Day 35): 3.53 Newton and 2.00 Newton and 3.04 Newton and 2.61 Newton | Grip strength, set 3 ([2]; Day 35): 2.58 Newton and 4.52 Newton and 3.53 Newton and 3.23 Newton | plasma TMPRSS5 concentration compared to the vehicle group [3]: No statistically significant differences | Conduction velocity, group MEAN ([4]; 6 weeks old, CMT + hAAT, 8 mice): 26.266 m/s | Compound muscle action potential (Mean ± SD) [4, 7]: 3.76 ± 0.50 mV | Nerve conduction velocity (Mean ± SD) [4, 7]: 15.96 ± 1.54 m/s | Amplitude, group MEAN [4, 8]: 5.492 mV | Conduction velocity, group MEAN [4, 8]: 16.946 m/s | Amplitude [4, 9]: 4.874 mV and 5.376 mV and 5.322 mV and 9.084 mV and 6.115 mV and 3.753 mV and 5.277 mV and 4.139 mV | Conduction velocity [4, 9]: 18.707 m/s and 16.462 m/s and 10.029 m/s and 19.200 m/s and 17.615 m/s and 9.648 m/s and 25.446 m/s and 18.460 m/s | T1 distal [4, 9]: 3.916 ms and 3.259 ms and 3.449 ms and 4.291 ms and 3.773 ms and 8.247 ms and 7.467 ms and 11.449 ms | T2 proximal [4, 9]: 4.718 ms and 4.170 ms and 4.945 ms and 5.072 ms and 4.624 ms and 9.802 ms and 8.057 ms and 12.262 ms | Compound muscle action potential (Mean ± SD) [4, 10]: 5.41 ± 0.71 mV | Nerve conduction velocity (Mean ± SD) [4, 10]: 21.47 ± 6.07 m/s | NCV vs untreated group [4, 11]: non-significantly different | CMAP vs untreated CMT animals ([4]; 12 weeks of age, after 2-week treatment-free period, P<0.05): significantly higher | Compound muscle action potential (Mean ± SD) [4, 12]: 2.94 ± 0.65 mV | Nerve conduction velocity (Mean ± SD) [4, 12]: 10.50 ± 1.73 m/s | compound muscle action potential amplitude vs CMT mice not treated with AAT [4, 13]: significant increase | nerve conduction velocity vs CMT mice not treated with AAT [4, 13]: significant increase | Plasma IL-6 (Mean ± SD) [5, 7]: 133.48 ± 31.45 pg/mL | Plasma IL-6 (Mean ± SD) [5, 10]: 69.78 ± 11.76 pg/mL | positive effect on IL-6 plasma levels [5, 11]: remained significant | Plasma IL-6 (Mean ± SD) [5, 12]: 120.90 ± 6.47 pg/mL | plasma levels of IL-6 ([5]; CMT mice, AAT 90 mg/kg sc twice a day, P<0.01): reduced | Sciatic nerve histology, Axonal diameter (Mean ± SD) [6, 14]: 3.84 ± 0.25 μm | Sciatic nerve histology, Axons/100 μm2 (Mean ± SD) [6, 14]: 26.30 ± 2.00 | Sciatic nerve histology, g-ratio (Mean ± SD) [6, 14]: 0.62 ± 0.16 | axonal diameter relative to untreated CMT animals [6, 15]: increase | g-ratio relative to untreated CMT animals [6, 15]: decrease | number of axons in the treated animals [6, 16]: significantly larger | size of the myelin sheath in the treated animals [6, 16]: significantly larger

Reference: patent US20260028390A1, “ALPHA1-ANTITRYPSIN FOR USE IN THE TREATMENT OF DISEASES OR DISORDERS OF THE NERVOUS SYSTEM SUCH AS CHRONIC INFLAMMATORY DEMYELINATING POLYNEUROPATHY” (Ageronix SA, priority 2022, published 2026)
